Reference: PMC10895668, “Lead Optimization of the 5-Phenylpyrazolopyrimidinone NPD-2975 toward Compounds with Improved Antitrypanosomal Efficacy” (Journal of Medicinal Chemistry, 2024)
Where two headings read alike, the source gives them in different places.

Legend:
MRC-5 cells [1] = experiment: MRC-5SV2 cytotoxicity assay; assay type: cell-based; conditions: Homo sapiens, MRC5, 72 h; cytotoxicity, 3 days incubation; mean ± SD, n ≥ 2; read-out: pIC50 MRC-5 (converted)
Description: The synthesized analogues were tested against T. b. brucei, and inhibition of MRC-5 (human lung fibroblasts MRC-5SV40) cell proliferation was included as cytotoxicity control. […] Analogue 17 with an amino group instead of the carbonyl group was prepared to improve solubility for further modification. […] In vitro experiments were carried out with the bloodstream form of the T. b. brucei Squib strain (suramin-sensitive). […] All cultures and assays were conducted at 37 °C under an atmosphere of 5% CO2. […] Cell growth is compared to untreated-control wells (100% cell growth) and medium-control wells (0% cell growth). […] After 4 h at 37 °C, fluorescence is measured (λex 550 nm, λem 590 nm). The results are expressed as % reduction in cell growth/viability compared to control wells and an IC50 and an IC90 (50 and 90% inhibitory concentrations) are determined.

T. b. brucei [2] = system: T. b. brucei; design: method as in PMID 37471520; conditions: previous in vivo results ref 21, cited from earlier work
in vivo = conditions: female, Swiss, mouse, in vivo
Description: (§1) The antiparasitic assays were carried out exactly as described in Blaazer et al.([39]) Metabolic stability, pharmacokinetics, acute mouse infection model results were collected as described previously.[21] All animal experiments were conducted in compliance with institutional guidelines and following approval by the Ethical Committee of the University of Antwerp, Belgium [UA-ECD 2014–96]. Female Swiss mice (15–20 g), were purchased from Janvier (Le Genest Saint Isle, France). […] Animals were treated PO b.i.d. for 5 days at 25 and 50 mg/kg 31c. For the SL-RNA qPCR experiments blood was collected sublingually and subjected to erythrocyte lysis before extracting RNA with the QIAamp RNA Blood Mini kit (Qiagen). […] Small pieces of fat, brain, and spleen tissue were excised and immediately transferred to RNA later (Qiagen) and incubated overnight at 4 °C. RNA extraction was performed as instructed in the RNeasy Mini Plus Kit manual (Qiagen). The one-step SensiFAST SYBR Hi-Rox PCR kit (Bioline USA Inc., via Gentaur Belgium BVBA, Kampenhout, Belgium) was used for the PCR with the following forward and reverse primers, respectively 5′-[…]-3′ and 5′-[…]-3′. An initial activation step of 10 min at 45 °C and 10 min at 95 °C was used, followed by the amplification step for 40 cycles (15 s at 95 °C, 15 s 50 °C and 15 s at 60 °C). At last, the melting curves were generated with an increment of 0.3 °C (15 s at 95 °C 1 min at 45 °C and 15 s at 95 °C). The PCR was run on the Step One Plus real-time PCR system (Applied Biosystems, California, USA). An additional qPCR was performed with the mouse housekeeping gene Eef2 to confirm successful RNA extraction.
Blood drops were sampled before treatment and at 0.5, 1, 2, 4, 6, and 24 h after PO dosage; samples after IP dosage were identical with an additional time point of 0.25 h. The blood drops were analyzed adopting the dry blood spot technique and analysis by LC-MS^2. Briefly, blood was collected from the retro-orbital complex using capillary tubes and dropped (15 μL) on WhatmanFTADMPK cards (B). The spots were left to air-dry at room temperature for at least 2 h. For analysis, a 6 mm disk was punched out and extracted in 75:25 MeCN/water containing the internal standard tolbutamide. The amount of parent compound was determined using liquid chromatography (UPLC) (Waters Aquity) coupled with tandem quadrupole mass spectrometry (MS^2) (Waters Xevo) equipped with an electrospray ionization (ESI) interface and operated in multiple reaction monitoring mode. Standard curves in whole blood were made for calibration and validation. Standard PK parameters were determined using Topfit software.
Brain tissue of the animals was collected on ice at autopsy 24 h post-treatment (50 mg/kg oral dose) after perfusion. […] The tissues were immediately homogenized using a GentleMacs tissue homogenizer. The tissue samples were subjected to protein precipitation by adding MeCN, followed by a centrifugation step at 4 °C for 5 min at 21, 130 g. The supernatant was further diluted in 75:25 MeCN/water for LC-MS^2 analysis as described above.

MRC-5 cells [3] = conditions: Figure 1; previously reported series ref 21; cited from earlier work
[4] = system: peritoneal mouse macrophages (PMM); experiment: Cytotoxicity on peritoneal mouse macrophages; assay type: cell-based; conditions: Macrophage, n ≥ 2
Leishmania infantum = experiment: Antiparasitic assay, L. infantum; assay type: cell-based; conditions: mean ± SD, n ≥ 2, read-out: pIC50 L. infantum (converted)
Description: (§2) First, they were tested in vitro against the protozoan species Trypanosoma cruzi and Leishmania infantum and the clinically relevant T. b. rhodesiense.
as §1, with “An initial activation step of 10 min at 45 °C and 10 min at 95 °C was used, followed by the amplification step for 40 cycles (15 s at 95 °C, 15 s 50 °C and 15 s at 60 °C). At last, the melting curves were generated with an increment of 0.3 °C (15 s at 95 °C 1 min at 45 °C and 15 s at 95 °C). The PCR was run on the Step One Plus real-time PCR system (Applied Biosystems, California, USA). An additional qPCR was performed with the mouse housekeeping gene Eef2 to confirm successful RNA extraction.” left out

[5] = human, microsomes, 1 h
T. b. rhodesiense = experiment: Trypanosoma susceptibility assay (resazurin viability); assay type: cell-based; conditions: Trypanosoma brucei, mean ± SD, n ≥ 2, read-out: pIC50 T. b. rhodesiense (converted)
Description: The antiparasitic assays were carried out exactly as described in Blaazer et al.([39]) Metabolic stability, pharmacokinetics, acute mouse infection model results were collected as described previously.[21] All animal experiments were conducted in compliance with institutional guidelines and following approval by the Ethical Committee of the University of Antwerp, Belgium [UA-ECD 2014–96]. Female Swiss mice (15–20 g), were purchased from Janvier (Le Genest Saint Isle, France). […] Animals were treated PO b.i.d. for 5 days at 25 and 50 mg/kg 31c. For the SL-RNA qPCR experiments blood was collected sublingually and subjected to erythrocyte lysis before extracting RNA with the QIAamp RNA Blood Mini kit (Qiagen). […]
Parasites were counted in a KOVA counting chamber and diluted to 1.5 × 10^4 parasites/well of a 96-well plate (200 μL total volume), upon which the prediluted test compounds were added. […] After 3 days of incubation, parasite growth was assessed fluorimetrically after addition of 50 μL of resazurin per well. After 6 h (T. b. rhodesiense) or 24 h (T. b. brucei) at 37 °C, fluorescence is measured (λex 550 nm, λem 590 nm). Parasite viability was assessed using the resazurin viability assay, and drug activity was calculated as percentage viability reduction compared to nontreated controls.

Trypanosoma cruzi = experiment: Antiparasitic assay, T. cruzi; assay type: cell-based; conditions: mean ± SD, n ≥ 2, read-out: pIC50 T. cruzi (converted)
Description: as §2
as §1, with “An initial activation step of 10 min at 45 °C and 10 min at 95 °C was used, followed by the amplification step for 40 cycles (15 s at 95 °C, 15 s 50 °C and 15 s at 60 °C). At last, the melting curves were generated with an increment of 0.3 °C (15 s at 95 °C 1 min at 45 °C and 15 s at 95 °C). The PCR was run on the Step One Plus real-time PCR system (Applied Biosystems, California, USA). An additional qPCR was performed with the mouse housekeeping gene Eef2 to confirm successful RNA extraction.” left out

[6] = mouse, microsomes
T. b. brucei [7] = experiment: Trypanosoma susceptibility assay (resazurin viability); assay type: cell-based
Description: as §1
In vitro experiments were carried out with the bloodstream form of the T. b. brucei Squib strain (suramin-sensitive). Parasites were routinely cultured in T25 culture flasks containing 10 mL of HMI-9 medium (Invitrogen) supplemented with 10% heat-inactivated fetal bovine serum (Life Technologies) and 2.5 μg/mL Geneticin (Life Technologies). MRC-5SV2 cells were cultured in MEM + Earl’s salts-medium, supplemented with 2 mM L-glutamine, 16.5 mM NaHCO3, and 5% inactivated fetal calf serum. All cultures and assays were conducted at 37 °C under an atmosphere of 5% CO2.
Parasites were counted in a KOVA counting chamber and diluted to 1.5 × 10^4 parasites/well of a 96-well plate (200 μL total volume), upon which the prediluted test compounds were added. Drug exposure covered a 72 h period without renewal of the culture medium. After 3 days of incubation, parasite growth was assessed fluorimetrically after addition of 50 μL of resazurin per well. After 6 h (T. b. rhodesiense) or 24 h (T. b. brucei) at 37 °C, fluorescence is measured (λex 550 nm, λem 590 nm). Parasite viability was assessed using the resazurin viability assay, and drug activity was calculated as percentage viability reduction compared to nontreated controls.

IC50 (Leishmania infantum)	parent compound remaining [5]	IC50 (T. b. rhodesiense)	IC50 (Trypanosoma cruzi)	time within which compound was metabolized [6]	parent compound remaining ([6]; 1 h)	IC50 (T. b. brucei [7]; Trypanosoma brucei, 72 h, T. b. brucei Squib bloodstream form, 72 h exposure, mean ± SD, n ≥ 2, read-out: pIC50 T. brucei (converted))	SMILES	IC50 (MRC-5 cells [1])	survival (T. b. brucei [2]; 25 mg/kg group)	survival (T. b. brucei [2]; 50 mg/kg dose)	Tmax at 24 h (in vivo; ip, 10 mg/kg)	Tmax at 24 h (in vivo; po, 50 mg/kg)	MRC-5 pIC50 (MRC-5 cells [3])	IC50 [4]	improved potency compared to 2 (T. b. brucei [7]; T. brucei, versus compound 2)
–	–	–	–	–	–	–	CC(C)c1n[nH]c2c(=O)[nH]c(-c3ccc(F)cc3)nc12 [compound 2]	> 63.1 µM	all animals died at 11 days postinfection	all animals survived until the end of the experiment	0.25 h	3 ± 1.5 h	< 4.2	> 63.1 µM	–
> 63.1 µM	at least 69%	10 nM	> 63.1 µM	≤ 15 min	at least 69%	10 nM	O=c1[nH]c(-c2ccc(F)cc2)nc2c(C3CCCC3)n[nH]c12 [31a, 3-Cyclopentyl-5-(4-fluorophenyl)-1,6-dihydro-7H-pyrazolo[4,3-d]pyrimidin-7-one]	> 63.1 µM	–	–	–	–	–	> 63.1 µM	6 fold
